Test results taken from patent US9139532B2, “Pyrazolyl guanidine F1F0-atpase inhibitors and therapeutic uses thereof” (Lycera Corporation, priority 2010, dated 2015).
Where two headings read alike, the source gives them in different places.

Experiments:
Ramos cells = assay: Cytotoxicity in Ramos cells; assay type: cell-based; settings: read-out: Ramos Cell EC50
F1F0-ATPase = target: T1, F1F0-ATPase (Bos taurus, UniProt P13621); assay: Inhibition of F1F0-ATPase activity in synthesizing ATP; assay type: biochemical; settings: inhibition of ATP synthesis by F1F0-ATPase; read-out: ATP Syn IC50
T1 construct: from tissue

[1] = Homo sapiens, cytotoxicity in Ramos cells

Structure (SMILES) | EC50 (Ramos cells; [1]) | IC50 (F1F0-ATPase) | EC50 (Ramos cells; cytotoxicity in Ramos cells) | EC50 (Ramos cells; Homo sapiens, Ramos)
CC(C)N/C(=N/C(=O)c1ccc(F)c(F)c1)Nc1cc(C(F)F)[nH]n1 [Compound A-63] | > 10 µM | < 10 µM | – | –
O=C(/N=C(/Nc1cc(C(F)(F)F)n[nH]1)NC1CCS(=O)(=O)C1)c1ccc(Cl)c(F)c1 (stereo not drawn) [Compound A-121] | > 10 µM | < 10 µM | – | –
Cc1ccc(-c2cc(N/C(=N\C(=O)c3ccc(C(F)(F)F)cc3)NC(C)C)[nH]n2)cc1F [Compound A-328] | – | < 10 µM | < 10 µM | –
CC1(N/C(=N/C(=O)c2ccc(Cl)cc2)Nc2cc(C(C)(C)C)[nH]n2)CCC1 [Compound A-17] | < 10 µM | < 10 µM | – | –
N#Cc1cccc(C(=O)/N=C(\Nc2cc(-c3cc(F)cc(F)c3)n[nH]2)NC2CCCC2)c1 [Compound A-309] | – | < 10 µM | < 10 µM | –
CC(C)(C)CN/C(=N/C(=O)c1ccc(C#N)cc1)Nc1cc(C(F)(F)F)[nH]n1 [Compound A-70] | < 10 µM | < 10 µM | – | –
O=C(/N=C(/Nc1cc(C(F)(F)F)n[nH]1)NC1CCCC1)c1ccc(F)c(F)c1 [Compound A-100] | < 10 µM | < 10 µM | – | –
C[C@@H](N/C(=N/C(=O)c1ccc(F)c(F)c1)Nc1cc(C(F)(F)F)[nH]n1)c1ccc(Cl)cc1 [Compound A-46] | < 10 µM | < 10 µM | – | –
O=C(/N=C(/NCC1CC1)Nc1cc(-c2cc(F)cc(F)c2)n[nH]1)c1ccc(Cl)c(F)c1 [Compound A-361] | – | < 10 µM | < 10 µM | –
CC(C)CN/C(=N/C(=O)c1cccc(S(C)(=O)=O)c1)Nc1cc(-c2ccc(F)cc2)n[nH]1 [Compound A-429] | – | < 10 µM | < 10 µM | –
O=C(N=C(Nc1cc(F)cc(Cl)c1)Nc1cc(-c2cccc(C(F)(F)F)c2)[nH]n1)c1ccc(F)c(F)c1 [Compound A-422] | < 10 µM | < 10 µM | – | –
COc1ccc(-c2cc(N/C(=N\C(=O)c3ccc(C(F)(F)F)cc3)NCC(C)(C)C)[nH]n2)cc1F [Compound A-573] | – | < 10 µM | > 10 µM | –
O=C(/N=C(\Nc1cc(-c2ccc(F)cc2)n[nH]1)NC1CCCC1)c1ccc(F)c(F)c1 [Compound A-260] | – | < 10 µM | < 10 µM | –
O=C(/N=C(/Nc1cc(F)cc(Cl)c1)Nc1cc(C(F)F)[nH]n1)c1ccc(Cl)cc1 [Compound A-57] | < 10 µM | < 10 µM | – | –
CC(C)(C)N/C(=N/C(=O)c1ccc(C#N)cc1)Nc1cc(-c2ccc(F)cc2)[nH]n1 [Compound A-529] | – | < 10 µM | > 10 µM | –
O=C(/N=C(/Nc1cc(F)cc(Cl)c1)Nc1cc(C(F)F)[nH]n1)c1ccc(C(F)(F)F)cc1 [Compound A-60] | < 10 µM | < 10 µM | – | –
CC(C)N/C(=N/C(=O)c1ccc(F)c(F)c1)Nc1cc(-c2ccc(F)cc2)n[nH]1 [Compound A-262] | – | < 10 µM | < 10 µM | –
O=C(/N=C(\Nc1cc(C(F)(F)F)n[nH]1)NC1CCOCC1)c1ccc(C(F)(F)F)cc1 [Compound A-95] | < 10 µM | < 10 µM | – | –
CC(C)(C)c1cc(N/C(=N\C(=O)c2ccc(Cl)cc2)NCC(F)(F)F)n[nH]1 [Compound A-16] | < 10 µM | < 10 µM | – | –
Cc1cccc(C(=O)N=C(Nc2cc(-c3ccc(F)cc3)n[nH]2)NC(C)(C)C)c1 [Compound A-552] | < 10 µM | < 10 µM | – | –

Structure (SMILES) | EC50 (Ramos cells; [1]) | IC50 (F1F0-ATPase) | EC50 (Ramos cells; cytotoxicity in Ramos cells) | EC50 (Ramos cells; Homo sapiens, Ramos)
CC(C)(C)N/C(=N/C(=O)c1ccc(F)cc1)Nc1cc(-c2ccc(F)cc2)n[nH]1 [Compound A-459] | – | < 10 µM | < 10 µM | –
Cc1cc(N/C(=N\C(=O)c2ccc(C(F)(F)F)cc2)NC2CCCC2)n[nH]1 [Compound A-185] | – | < 10 µM | < 10 µM | –
O=C(/N=C(/NCc1ccc(F)c(Cl)c1)Nc1cc(C(F)(F)F)[nH]n1)c1ccc(C(F)(F)F)cc1 [Compound A-19] | < 10 µM | < 10 µM | – | –
Cc1ccc(-c2cc(N/C(=N\C(=O)c3ccc(F)c(F)c3)NCc3ccc(F)cc3Cl)[nH]n2)cc1F [Compound A-317] | – | < 10 µM | < 10 µM | –
N#Cc1cccc(C(=O)/N=C(/NCc2ccc(F)cc2Cl)Nc2cc(C(F)(F)F)[nH]n2)c1 [Compound A-82] | – | < 10 µM | – | < 10 µM
CC(C)(C)CN/C(=N/C(=O)c1cccc(C#N)c1)Nc1cc(-c2ccc(F)cc2)[nH]n1 [Compound A-517] | – | < 10 µM | < 10 µM | –
CC(C)C(C)NC(=NC(=O)c1ccc(Cl)c(F)c1)Nc1cc(-c2cc(F)cc(F)c2)n[nH]1 (stereo not drawn) [Compound A-351] | < 10 µM | < 10 µM | – | –
CCOC[C@H](C)NC(=NC(=O)c1ccc(F)cc1)Nc1cc(-c2cc(F)cc(F)c2)n[nH]1 [Compound A-242] | < 10 µM | < 10 µM | – | –
CC(C)(C)N/C(=N/C(=O)c1ccc(F)c(F)c1)Nc1cc(-c2ccc(Cl)cc2)[nH]n1 [Compound A-137] | – | < 10 µM | < 10 µM | –
CCOC(C)CN/C(=N/C(=O)c1ccc(Cl)c(F)c1)Nc1cc(-c2ccc(F)cc2)n[nH]1 (stereo not drawn) [Compound A-213] | – | < 10 µM | < 10 µM | –
COc1ccc(-c2cc(N/C(=N\C(=O)c3ccc(F)c(F)c3)NCc3ccc(F)cc3Cl)[nH]n2)cc1 [Compound A-476] | – | < 10 µM | > 10 µM | –
CC(C)NC(=NC(=O)c1ccc(C(F)(F)F)cc1)Nc1cc(-c2cc(F)cc(F)c2)n[nH]1 [Compound A-296] | < 10 µM | < 10 µM | – | –
O=C(/N=C(/NCC1CCOC1)Nc1cc(C(F)(F)F)[nH]n1)c1ccc(F)cc1 (stereo not drawn) [Compound A-406] | – | < 10 µM | > 10 µM | –
N#Cc1cccc(C(=O)/N=C(\Nc2cc(-c3ccc(F)cc3)n[nH]2)NC2CCC(F)(F)CC2)c1 [Compound A-502] | – | < 10 µM | < 10 µM | –
CC(C)(C)N/C(=N/C(=O)c1cccc(Cl)c1)Nc1cc(-c2cccc(Cl)c2)[nH]n1 [Compound A-129] | – | < 10 µM | < 10 µM | –
COCC(C)NC(=NC(=O)c1ccc(C#N)cc1)Nc1cc(-c2ccc(F)cc2)n[nH]1 (stereo not drawn) [Compound A-528] | > 10 µM | < 10 µM | – | –
CC(C)(C)N/C(=N/C(=O)c1cccc(C(F)(F)F)c1)Nc1cc(-c2ccc(Cl)cc2)n[nH]1 [Compound A-437] | – | < 10 µM | < 10 µM | –
Cc1cc(C(=O)/N=C(\Nc2cc(C(F)(F)F)[nH]n2)NC(C)(C)C)ccn1 [Compound A-84] | > 10 µM | < 10 µM | – | –
O=C(/N=C(\Nc1cc(C(F)(F)F)[nH]n1)NC1CCCCCC1)c1ccc(C(F)F)cc1 [Compound A-87] | < 10 µM | < 10 µM | – | –
CCOCCCN/C(=N/C(=O)c1ccc(F)cc1)Nc1cc(-c2ccc(F)cc2)n[nH]1 [Compound A-280] | – | < 10 µM | > 10 µM | –

Structure (SMILES) | EC50 (Ramos cells; [1]) | IC50 (F1F0-ATPase) | EC50 (Ramos cells; cytotoxicity in Ramos cells) | EC50 (Ramos cells; Homo sapiens, Ramos)
Cc1ccc(-c2cc(N/C(=N\C(=O)c3ccc(C(F)(F)F)cc3)NCC(C)C)[nH]n2)cc1F [Compound A-332] | – | < 10 µM | > 10 µM | –
COc1cccc(C(=O)N=C(NCC(C)(C)C)Nc2cc(-c3ccc(F)cc3)n[nH]2)c1 [Compound A-516] | < 10 µM | < 10 µM | – | –
O=C(N=C(Nc1cc(-c2ccc(F)cc2)n[nH]1)NC1CCCC1)c1ccc(F)cc1 [Compound A-521] | < 10 µM | < 10 µM | – | –
CCOCCCN/C(=N/C(=O)c1ccc(F)c(F)c1)Nc1cc(-c2ccc(C)c(F)c2)n[nH]1 [Compound A-281] | – | < 10 µM | < 10 µM | –
CC(C)(C)N/C(=N/C(=O)c1ccc(F)c(F)c1)Nc1cc(-c2cc(F)cc(Cl)c2)n[nH]1 [Compound A-290] | – | < 10 µM | < 10 µM | –
Cc1ccc(-c2cc(N/C(=N\C(=O)c3ccc(F)c(F)c3)Nc3cc(F)cc(Cl)c3)[nH]n2)cc1 [Compound A-428] | – | < 10 µM | > 10 µM | –
CC(C)(C)N/C(=N/C(=O)c1ccc(Cl)c(F)c1)Nc1cc(-c2ccccc2)[nH]n1 [Compound A-141] | – | < 10 µM | < 10 µM | –
Cc1ccc(-c2cc(NC(=NC(=O)c3ccc(Cl)c(F)c3)NCc3ccc(F)cc3Cl)[nH]n2)cc1 [Compound A-474] | > 10 µM | < 10 µM | – | –
CCOc1cccc(C(=O)/N=C(\Nc2cc(-c3ccc(F)cc3)[nH]n2)NC(C)(C)C)c1 [Compound A-402] | – | < 10 µM | < 10 µM | –
O=C(/N=C(/NCc1cccc(C(F)(F)F)c1)Nc1cc(C(F)(F)F)[nH]n1)c1ccc(C(F)(F)F)cc1 [Compound A-2] | < 10 µM | < 10 µM | – | –
CC(C)(C)N/C(=N/C(=O)c1ccc(C(F)F)cc1)Nc1cc(C(F)(F)F)[nH]n1 [Compound A-64] | < 10 µM | < 10 µM | – | –
CC(C)OCCCNC(=NC(=O)c1ccc(F)c(F)c1)Nc1cc(-c2cc(F)cc(Cl)c2)n[nH]1 [Compound A-283] | < 10 µM | < 10 µM | – | –
O=C(/N=C(/Nc1cc(F)cc(Cl)c1)Nc1cc(-c2ccc(F)cc2)n[nH]1)c1cccc(F)c1 [Compound A-458] | – | < 10 µM | < 10 µM | –
O=C(N=C(Nc1cc(-c2ccc(Cl)cc2)n[nH]1)NC1CCCC1)c1ccc(F)c(F)c1 [Compound A-378] | < 10 µM | < 10 µM | – | –
Cc1ccc(-c2cc(N/C(=N\C(=O)c3ccc(F)c(F)c3)NC(C)C)[nH]n2)cc1F [Compound A-319] | – | < 10 µM | < 10 µM | –
O=C(/N=C(/NCc1ccc(F)cc1Cl)Nc1cc(-c2ccc(Cl)cc2)n[nH]1)c1ccc(F)c(F)c1 [Compound A-478] | – | < 10 µM | < 10 µM | –
COc1cccc(C(=O)/N=C(/NCc2ccccc2C)Nc2cc(-c3ccc(F)cc3)[nH]n2)c1 [Compound A-395] | – | < 10 µM | < 10 µM | –
O=C(/N=C(\Nc1cc(C(F)(F)F)[nH]n1)NC1CCC(O)CC1)c1ccc(C(F)(F)F)cc1 (stereo not drawn) [Compound A-560] | – | < 10 µM | > 10 µM | –
CC(C)(C)CN/C(=N/C(=O)c1ccc(F)c(F)c1)Nc1cc(C(F)F)[nH]n1 [Compound A-88] | < 10 µM | < 10 µM | – | –
O=C(/N=C(\Nc1cc(-c2ccc(CO)cc2)[nH]n1)NC1CCCC1)c1ccc(F)c(F)c1 [Compound A-158] | – | > 10 µM | > 10 µM | –
